This is an account of results in US6147230A, “Amino acid dysiherbaine” (priority 1996, dated 2000).

Each structure is given as a SMILES string. Where two headings read alike, the source gives them in different places.

For one data set, the target named is AMPA receptors. The experiment in a line: Radiobinding assay in rat brain synaptic membrane samples, [^3 H] AMPA (AMPA receptors). As to conditions: [^3 H] AMPA 5 nM, 4° C., 1 hour; for IC50: 100 mM KSCN/50 mM Tris-acetate pH 7.4, read-out: IC50, inhibition of [^3 H] AMPA binding. The class given is binding. On the procedure: (§1) Radiobinding assay in rat brain synaptic membrane samples
(§2) Rat brain synaptic membrane samples were prepared according to the described protocols (London, E. D., Coyle, J. T., Mol. Pharmacol. 1979, 15, 492; Murphy, D. E., Snowhill, E. W.; Williams, M., Neurochem. Res. 1987, 12, 775 and Murphy, D. E., Hutchison, A. J., Hurt, S. D., Williams, M., Sills, M. A., Br. J. Pharmacol. 1988, 95, 932). Radioligands and incubation conditions used in the binding assay as well as experimental results are as follows:
[Conditions]: ligand [^3 H] AMPA 5 nM; incubation medium 100 mM KSCN/50 mM Tris-acetate buffer (pH 7.4); incubation condition 4° C., 1 hour.

Another data set relates to DDY mouse. As to the kind of experiment: Intraperitoneal administration to mice. The class given is in vivo. As to the method:
Intraperitoneal administration to mice
Compound (1) was diluted with purified water and intraperitoneally injected into a DDY mouse (male, 15 g).

A further data set concerns the target KA receptors. The experiment in a line: Radiobinding assay in rat brain synaptic membrane samples, [^3 H] kainic acid (KA receptors). The class given is binding. As to conditions: [^3 H] kainic acid 1 nM, 4° C., 1 hour; for IC50: 100 mM Tris-acetate pH 7.1, read-out: IC50, inhibition of [^3 H] kainic acid binding. As to the method: as §1, §2
[Conditions]: ligand [^3 H] kainic acid 1 nM; incubation medium 100 mM Tris-acetate buffer (pH 7.1); incubation condition 4° C., 1 hour.

The subject of data set [1] is Glutamate receptors expressed in primary cultures of rat cerebral cortex neurocytes. The experiment in a line: Electrophysiological evaluation (patch clamp whole cell) in primary cultures of rat cerebral cortex neurocytes. The class given is cell-based. From the text: Electrophysiological evaluation in primary cultures of rat cerebral cortex neurocytes
The next data set deals with NMDA receptors. The experiment in a line: Radiobinding assay in rat brain synaptic membrane samples, [^3 H] CGS-19755 (NMDA receptors). Type of data set: binding. As to conditions: [^3 H] CGS-19755 10 nM; 50 mM Tris-acetate pH 8.0; 4° C., 1 hour. On the procedure:
as §1, §2
[Conditions]: ligand [^3 H] CGS-19755 10 nM; incubation medium 50 mM Tris-acetate buffer (pH 8.0); incubation condition 4° C., 1 hour.

For the next data set, the system named is rats. Particulars: prior art statement; cited from earlier work.
The mark [2] stands for this setting: inward current, patch clamp whole cell; cultures grown 10-21 days.
The mark [3] stands for this setting: read-out: EC50, inward current; patch clamp whole cell; cultures grown 10-21 days.

For `CNC1C(O)COC2CC(CC(N)C(=O)O)(C(=O)O)OC21` (centres unmarked) [Compound (1), dysiherbaine], the IC50 on AMPA receptors is 224 ± 22 nM. Also, in the data set with AMPA receptors (pH 7.4), the “inhibition of [^3 H] AMPA binding to AMPA receptors” value is reported as “concentration-dependently inhibited”. Also, in the data set with DDY mouse (20 μg/kg i.p., male DDY mouse), the “behavioural effect, low dose” value is listed as “repeat scratching on the flank” and the “duration of repeated scratching on the flank” value fell in the range of 10 to 20 min. Also, in the data set with DDY mouse (1.3 mg/kg i.p., male DDY mouse), the “behavioural effect, moderate dose” value is reported as “epileptoid spasm” and the “recovery, moderate dose” value is listed as “recovered from this condition on the following day”. Further, in the data set on DDY mouse (6.5 mg/kg i.p., male DDY mouse), the “effect, higher dose” value is listed as “died in about 40 minutes after violent attack” and the time to death entry is “about 40 minutes”. The “in vivo activity compared with domoic acid” value in the data set on DDY mouse (compared with known KA agonist domoic acid) was “stronger in vivo activity than a known KA agonist domoic acid”. Besides, the IC50 at KA receptors worked out at 59 ± 7.8 nM. Besides, the “inhibition of [^3 H] kainic acid binding to KA receptors” value in the data set with KA receptors (pH 7.1) was “concentration-dependently inhibited”. In data set [1] (compared with kainic acid), the “inward current compared with kainic acid” value is on record as “stronger inward current than kainic acid”. In data set [1] (setting [2]), this molecule came in with a Max response of 1.40 nA. The “induction of inward current” value in data set [1] (patch clamp whole cell) is listed as “concentration-dependently induced a strong inward current”. Besides, in data set [1] (setting [3]), the 50% effective concentration (EC50) worked out at 4000 nM. Besides, the “inhibition of [^3 H] CGS-19755 binding to NMDA receptors” value with NMDA receptors is “did not inhibit”.

On to `N#Cc1cc2[nH]c(=O)c(=O)[nH]c2cc1[N+](=O)[O-]` [CNQX, 6-cyano-7-nitroquinoxaline-2,3-dione], for which the “inhibition of the current induced by Compound (1)” value in data set [1] (current induced by Compound (1)) is “significantly inhibited”.

As for `C=C(C)[C@H]1CN[C@H](C(=O)O)[C@H]1CC(=O)O` [Kainic acid, kainic acid], the “lesions and neuronal degeneration in rats” value with rats is “induces epileptoid lesions and neuronal degeneration in rats”. For the same molecule, at KA receptors, the half-maximal inhibitory concentration (IC50) was determined as 4.3 ± 0.5 nM. Besides, the Max response in data set [1] (setting [2]) is given as 1.31 nA. Besides, in data set [1] (setting [3]), the EC50 was 40000 nM.

`Cc1onc(O)c1CC(N)C(=O)O` (stereo not drawn) [AMPA, α-amino-3-hydroxy-5-methyl-4-isoxazolepropionic acid]: the IC50 on AMPA receptors was determined as 5.6 ± 1.1 nM. This molecule showed a Max response in data set [1] (setting [2]) of 1.26 nA. The concentration giving a half-maximal response (EC50) in data set [1] (patch clamp whole cell; cultures grown 10-21 days; read-out: EC50, inward current) worked out at 4000 nM.

Consider `N[C@@H](CCC(=O)O)C(=O)O` [Glutamic acid, L-glutamic acid, reference compound], for which the concentration for half-maximal inhibition (IC50) on AMPA receptors was 124 ± 41 nM; at KA receptors, 110 ± 18 nM.
